Results on 37 molecules are retold here after patent US10927076B2, “HSP90B N-terminal isoform-selective inhibitors” (priority 2017, dated 2021).

The structures appear in SMILES notation. Where two headings read alike, the source gives them in different places.

In one experiment the test system is MCF-7. In words: Anti-proliferation activity. The class given is cell-based. The settings on record: Homo sapiens, MCF7.
The next experiment deals with SkBr3. In words: Anti-proliferation activity. Conditions: Homo sapiens, SK-BR-3. The class given is cell-based.
The subject of the next experiment is NCI-H23 cells. In words: Anti-proliferation assay (MTS/PMS, 72 h). Conditions: Homo sapiens, non-small cell lung cancer. In kind it is cell-based.
The target in another experiment is Hsp90α (Homo sapiens (Human), UniProt P07900). In words: Fluorescence polarization assay (FITC-GDA tracer displacement). The class given is binding. The protocol: (§1) Florescence Polarization.
(§2) Assay was performed in 96-well format in black, flat bottom plates (Santa Cruz Biotechnology) with a final volume of 100 μL. […] Compounds were tested in triplicate wells (1% DMSO final concentration). For each plate, wells containing buffer only (background), tracer in buffer only (low polarization control), and protein and tracer in buffer with 1% DMSO (highpolarization control) were included. Plates were incubated at 4° C. with rocking for 24 h. […] Polarization values were correlated to % tracer bound and compound concentrations. The concentration at which the tracer was 50% displaced by the inhibitor was determined using Graphpad Prism.

The next experiment deals with Hsp90β (Homo sapiens (Human), UniProt P08238). The description is as above. In kind it is binding. The settings on record: for Selectivity: Hsp90β over Hsp90α. The method, then:
as §1, §2

The test system of the next experiment is Grp94. The experiment is described as above. The class given is binding. The protocol: as §1, §2
Where [1] appears, read: fluorescence polarization, read-out: Kd Hsp90β.

Sequence of Hsp90β (P08238 whole entry): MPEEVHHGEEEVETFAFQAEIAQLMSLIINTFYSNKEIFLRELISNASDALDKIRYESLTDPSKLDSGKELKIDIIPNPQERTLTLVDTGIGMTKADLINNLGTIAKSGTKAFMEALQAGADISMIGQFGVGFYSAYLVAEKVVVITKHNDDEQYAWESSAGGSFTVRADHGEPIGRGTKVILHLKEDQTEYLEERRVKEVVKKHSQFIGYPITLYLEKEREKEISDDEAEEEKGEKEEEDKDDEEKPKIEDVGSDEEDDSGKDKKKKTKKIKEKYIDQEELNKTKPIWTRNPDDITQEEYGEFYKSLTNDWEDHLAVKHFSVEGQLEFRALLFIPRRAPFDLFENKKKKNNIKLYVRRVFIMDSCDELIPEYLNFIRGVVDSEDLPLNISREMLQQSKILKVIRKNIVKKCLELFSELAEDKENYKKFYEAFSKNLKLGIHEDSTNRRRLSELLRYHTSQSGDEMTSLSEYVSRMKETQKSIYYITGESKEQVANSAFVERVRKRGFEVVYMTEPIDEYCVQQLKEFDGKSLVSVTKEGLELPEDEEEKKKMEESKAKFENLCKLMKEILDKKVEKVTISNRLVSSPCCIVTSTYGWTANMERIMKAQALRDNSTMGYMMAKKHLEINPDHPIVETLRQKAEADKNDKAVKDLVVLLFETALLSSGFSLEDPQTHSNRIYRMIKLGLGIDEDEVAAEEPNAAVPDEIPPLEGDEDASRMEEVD
Protocol for NCI-H23 cells: Cells were grown to confluence and seeded at 2000 cells/well/0.1 mL in a 96-well plate and placed back in the incubator for 24 h. Compounds or vehicle were administered at the desired concentrations (1% DMSO final concentration) and incubated for 72 h. The % viable cells was determined using the MTS/PMS cell proliferation kit (Promega) per the manufacturer's instructions. Cells treated with vehicle were normalized to 100% proliferation and values adjusted accordingly.

The IC50 is the point on the concentration scale where inhibition reaches its midpoint. Higher therefore signals a need for much substance. For the molecule `CC(C)c1cc(C(=O)N2Cc3ccccc3C2)c(O)c2cnoc12`, the IC50 in the experiment with MCF-7 is 28.3 ± 1.47 µM; with SkBr3, 38.2 ± 2.75 µM.
In the case of `CC(C)c1cc(C(=O)N2Cc3ccc(F)cc3C2)c(O)c2cnoc12`, the IC50 with NCI-H23 cells worked out at 5.76 µM; in the experiment on MCF-7 it was 16.6 µM.
In the same order, the values of `CC(C)c1cc(C(=O)N2Cc3ccc(F)cc3C2)c(O)c(CO)c1O` are 2.13 ± 0.7 µM and 13.2 µM.
`CC(C)c1cc(C(=O)N2Cc3ccccc3C2)c(O)c2[nH]ncc12`: the half-inhibitory concentration (IC50) in the experiment with NCI-H23 cells was 13.7 µM; in the experiment with MCF-7, 19.1 µM; with SkBr3, 29.7 µM.
Regarding `O=C(c1cc(Br)c2cn[nH]c2c1O)N1Cc2ccccc2C1`, the IC50 turned out to be 13.4 µM with NCI-H23 cells and 23.6 µM with SkBr3.
The term Kd denotes the free concentration of one partner at which half of the binding sites on the other are occupied at equilibrium, for simple one-to-one binding. Take `CC(C)c1cc(C(=O)N2Cc3ccccc3C2)c(O)cc1CBr` [Br]: the Kd on Hsp90α (fluorescence polarization) is 4.98 ± 0.97 µM; at Hsp90β (setting [1]), 0.73 ± 0.11 µM.
In the same order, the values of `CCc1cc(O)c(C(=O)N2Cc3ccccc3C2)cc1C(C)C` [CH3] are greater than 50 µM and greater than 50 µM.
For `CC(C)c1cc(C(=O)N2Cc3ccccc3C2)c(O)cc1C=O` [CHO], the affinity on Hsp90α, expressed as Kd, was 1.21 ± 0.12 µM.
In turn, `CC(C)c1cc(C(=O)N2Cc3ccccc3C2)c(O)cc1CC#N` [CN] yielded a Kd on Hsp90α (fluorescence polarization) of 2.28 ± 0.12 µM.
As to `CC(C)c1cc(C(=O)N2Cc3ccccc3C2)c(O)cc1CCl` [Cl], the dissociation constant Kd was greater than 100 µM on Hsp90α (fluorescence polarization) and 25.2 ± 1.45 µM at Hsp90β (setting [1]).
`CC(C)c1ccc(O)c(C(=O)N2Cc3ccccc3C2)c1` [Compound 1]: the Kd at Hsp90α (fluorescence polarization) came to 3.21 µM; at Hsp90β (setting [1]), 1.63 µM. Besides, the “selectivity for Hsp90β over Hsp90α” value on Hsp90β is given as roughly 2 fold.
With `CC(C)c1cc(C(=O)N2Cc3ccccc3C2)c(O)cc1CC#N` [Compound 2, 2-(5-Hydroxy-4-(isoindoline-2-carbonyl)-2-isopropylphenyl)acetonitrile], the “selectivity for Hsp90β over Hsp90α” value at Hsp90β was roughly 2.5 fold. Further, the Kd at Hsp90β (setting [1]) was 0.97 µM.
In the case of `COCc1cc(O)c(C(=O)N2Cc3ccccc3C2)cc1C(C)C` [Compound 3, (2-Hydroxy-5-isopropyl-4-(methoxymethyl)phenyl)(isoindolin-2-yl)methanone], the “binding to Hsp90α” value on Hsp90α (at 10 μM) is “did not bind”. Further, the “binding to Hsp90β” value on Hsp90β (at 10 μM) is listed as “did not bind”.
As to `CC(C)c1cc(C(=O)N2Cc3ccccc3C2)c(O)cc1C=O` [Compound 4, 5-Hydroxy-4-(isoindoline-2-carbonyl)-2-isopropylbenzaldehyde], the equilibrium dissociation constant (Kd) on Hsp90α amounted to 1.55 µM.
For the molecule `CC(C)c1cc(C(=O)N2Cc3ccccc3C2)c(O)c(C=O)c1O` [KUNB1, 2,6-Dihydroxy-3-(isoindoline-2-carbonyl)-5-isopropylbenzaldehyde], on Hsp90β (setting [1]), the Kd is no less than 100 µM.
The same measure, in the same setting: for `C=Cc1c(O)c(C(=O)N2Cc3ccccc3C2)cc(C(C)C)c1O` [KUNB2, (2,4-Dihydroxy-5-isopropyl-3-vinylphenyl)(isoindolin-2-yl)methanone] the value was 5.24 µM; for `CCc1c(O)c(C(=O)N2Cc3ccccc3C2)cc(C(C)C)c1O` [KUNB3, (3-Ethyl-2,4-dihydroxy-5-isopropylphenyl)(isoindolin-2-yl)methanone], 3.31 µM.
For the molecule `CC(C)c1cc(C(=O)N2Cc3ccccc3C2)c(O)c(CN)c1O` [KUNB4, (3-(Aminomethyl)-2,4-dihydroxy-5-isopropylphenyl)(isoindolin-2-yl)methanone], the Kd on Hsp90β is no less than 100 µM.
On to `CCCc1c(O)c(C(=O)N2Cc3ccccc3C2)cc(C(C)C)c1OCOC` [KUNB5, (2-Hydroxy-5-isopropyl-4-(methoxymethoxy)-3-propylphenyl)(isoindolin-2-yl)methanone], for which binding at Hsp90β was characterised by a dissociation constant (Kd) of 6.3 µM.
Same read-out and setting: for `C=CCc1c(O)c(C(=O)N2Cc3ccccc3C2)cc(C(C)C)c1OCOC` [KUNB6, (3-Allyl-2-hydroxy-5-isopropyl-4-(methoxymethoxy)phenyl)(isoindolin-2-yl)methanone] the value was no less than 100 µM; for `COCOc1c(C(C)C)cc(C(=O)N2Cc3ccccc3C2)c(O)c1CCO` [KUNB7, (2-Hydroxy-3-(2-hydroxyethyl)-5-isopropyl-4-(methoxymethoxy)phenyl) (isoindolin-2-yl)methanone], no less than 100 µM.
Take `CC(C)c1cc(C(=O)N2Cc3ccccc3C2)c(O)c(CO)c1O` [KUNB14, (2,4-Dihydroxy-3-(hydroxymethyl)-5-isopropylphenyl)(isoindolin-2-yl)methanone]: at Hsp90β (setting [1]), the Kd turned out to be 4.27 µM.
Consider `CC(C)c1cc(C(=O)N2Cc3ccccc3C2)c(O)c2c1C1C=NNC1O2` (stereo not drawn) [KUNB17], for which the results for the dissociation constant (Kd) at Hsp90α (fluorescence polarization) and on Hsp90β (setting [1]) were no less than 10 µM and 0.72 µM, respectively. On Hsp90β, this molecule came in with a Selectivity of no less than 14.
The corresponding values for `CC(C)c1cc(C(=O)N2Cc3ccccc3C2)c(O)c2cn[nH]c12` [KUNB18] are 82.5 µM, 3.71 µM and 22.
In the same order, the values of `CC(C)c1cc(C(=O)N2Cc3ccccc3C2)c(O)c2nc[nH]c12` [KUNB19] are no less than 100 µM, 6.3 µM and 1.6.
In the same order, the values of `CC(C)c1cc(C(=O)N2Cc3ccccc3C2)c(O)c2c1CCC2=O` [KUNB22] are 9.3 µM, 0.11 µM and 85.
For the molecule `CCC1Cc2c(C(C)C)cc(C(=O)N3Cc4ccccc4C3)c(O)c2C1=O` (stereo not drawn) [KUNB23], the dissociation constant Kd on Hsp90α (fluorescence polarization) is no less than 10 µM; at Hsp90β (setting [1]), 0.58 µM. Further, the Selectivity at Hsp90β is no less than 17.
In the same order, the values of `CCCC1Cc2c(C(C)C)cc(C(=O)N3Cc4ccccc4C3)c(O)c2C1=O` (stereo not drawn) [KUNB24] are no less than 100 µM, 2.7 µM and no less than 37.
The corresponding values for `CC(C)c1cc(C(=O)N2Cc3ccccc3C2)c(O)c2c1CNC2=O` [KUNB25] are no less than 10 µM, 0.33 µM and no less than 30.
The corresponding values for `CCN1Cc2c(C(C)C)cc(C(=O)N3Cc4ccccc4C3)c(O)c2C1=O` [KUNB26] are no less than 10 µM, 0.53 µM and no less than 19.
`CC1Cc2c(C(C)C)cc(C(=O)N3Cc4ccccc4C3)c(O)c2C1=O` (stereo not drawn) [KUNB28]: the Kd on Hsp90α (fluorescence polarization) is no less than 10 µM; at Hsp90β (setting [1]) it was 0.295 µM. Further, the Selectivity on Hsp90β was no less than 34.
In the case of `CC(C)c1cc(C(=O)N2Cc3ccc(F)cc3C2)c2oncc2c1O` [KUNB31b, (5-fluoroisoindolin-2-yl)(4-hydroxy-5-isopropylbenzo[d]isoxazol-7-yl)methanone], the “selectivity for Hsp90β over Grp94” value in the experiment on Grp94 was roughly 50 fold. For the same molecule, the “selectivity for Hsp90β over Hsp90α” value at Hsp90β is on record as roughly 50 fold.
As to `CC(C)c1cc(C(=O)N2Cc3ccccc3C2)c(O)cc1N` [NH2], the figures for the Kd at Hsp90α (fluorescence polarization) and on Hsp90β (setting [1]) were 0.46 ± 0.22 µM and 0.71 µM, respectively.
As to `CNCc1cc(O)c(C(=O)N2Cc3ccccc3C2)cc1C(C)C` [NHCH3], the Kd was greater than 100 µM on Hsp90α (fluorescence polarization) and 23.2 ± 1.07 µM on Hsp90β (setting [1]).
The corresponding values for `CC(C)c1cc(C(=O)N2Cc3ccccc3C2)c(O)cc1CO` [OH] are 4.21 ± 0.62 µM and 1.97 ± 0.07 µM.
The corresponding values for `COCc1cc(O)c(C(=O)N2Cc3ccccc3C2)cc1C(C)C` [OMe] are greater than 50 µM and greater than 50 µM.
For the molecule `CC(C)c1cc(C(=O)N2Cc3ccccc3C2)c(O)c(CO)c1O` [drawing 45], the IC50 came out at 3.9 ± 0.33 µM in the experiment on NCI-H23 cells, 13.7 ± 1.46 µM in the experiment on MCF-7 and 9.13 ± 1.03 µM in the experiment with SkBr3.
